# Measured values: patent US6660737B2, “Medicinal uses of hydrazones” (The Procter & Gamble Company, priority 2001, dated 2003)
# Test system: VEGF
# Experiment: VEGF-ELISA assay: VEGF secretion from HL-1 cardiomyocyte cell line
# Format: cell-based, Murine
# Conditions: HL-1 cells, 18 hr, VEGF in conditioned media by ELISA; read-out: EC50 (concentration of compound that induces the production of an amount of VEGF equal to half the maximum amount of VEGF induced by that compound)
# Description: ^1EC50 is the concentration of compound that induces the production of an amount of VEGF equal to half the maximum amount of VEGF induced by that compound.
# Any compound of the present invention can be screened by a VEGF-ELISA assay. VEGF secretion is assayed in the HL-1 cardiomyocyte cell line as described in Claycomb, W. C., “HL-1 cells: a cardiac muscle cell line that contracts and retains phenotypic characteristics of the adult cardiomyocyte”, Proc. Natl. Acad. Sci U.S.A., Vol. 95, pp. 2979-84 (1998). For experiments, HL-1 cells are plated in 96-well plates at a density of 2×10^4 cells per well in growth medium: EXCEL 320 media (JRH Biosciences, Lenexia, Kans.) plus 10% fetal bovine serum (BioWhitaker), 100 nM retinoic acid (Sigma, St Louis, Mo.), 10 μM norepinephrine (Sigma), 10 μg/ml insulin (Life Technologies, Grand Island, N.Y.), 1× non-essential amino acid supplement (Life Technologies), 50 μg/ml endothelial cell growth supplement (Upstate Biotechnology, Lake Placid, N.Y.), 100 units/ml penicillin, 100 units/mil streptomycin (Life Technologies). After 24 hrs, the media is replaced with a low-growth media (HL-1 media with 2% fetal bovine serum and without endothelial cell growth supplement) containing test compounds with 0.5% dimethyl sulfoxide (DMSO). After 18 hrs, conditioned media from the treated cells was assayed for VEGF content with a Murine VEGF-ELISA kit (R & D Systems, Minneapolis, Minn.). The amount of VEGF secreted into the media over an 18 hr period is normalized to positive control wells which are treated with a maximally effective concentration (1 mM) of deferoxamine mesylate (Sigma, St. Louis) and are reported as “percent activity,” where the VEGF in unstimulated wells is defined as 0% and the VEGF in wells treated with 1 mM deferoxamine is defined as 100%. Potency is determined by stimulating cells with 10 concentrations of test compounds (200 nM to 100 μM) and fitting the data to a variable slope sigmoidal dose-response curve using GraphPad Prism version 3.00 for Windows 95 (GraphPad Software, San Diego, Calif.). Determinations for each test compound are performed in three separate experiments and the means ±standard deviation of the Log(EC50) and maximum response are evaluated. Compounds for pharmaceutical use are selected based upon the greatest percent activity.
row,Compound,EC50
1,"C/C(=N\Nc1ccccn1)c1ccccn1 [Example 2, N-Pyridin-2-yl-N′-(1-pyridin-2-yl-ethylidene)hydrazine]",0.65 µM
2,"Oc1ccccc1/C=N/Nc1nccnc1Cl [Example 19, 2-[(3-Chloro-pyrazin-2-yl)-hydrazonomethyl]-phenol]",15 µM
3,"C/C(=N\Nc1nc(C)cc(C)n1)c1ccccn1 [Example 12, N-(4,6-Dimethyl-pyrimidin-2-yl)-N′-(1-pyridin-2-yl-ethylidien)-hydrazine]",4.78 µM
4,"Clc1ccc(N/N=C/c2ccccn2)nn1 [Example 9, N-(6-Chloro-pyridazin-3-yl)-N′-pyridin-2-ylmethylene-hydrazine]",6.7 µM
5,"Cc1cccc(/C=N/Nc2ccc(Cl)nn2)n1 [Example 26, N-(6-Chloro-pyridazine-3-yl)-N′-(6-methyl-pyridin-2-ylmethylene)-hydrazine]",40 µM
6,"C(=N\Nc1ccc2ccccc2n1)/c1ccccn1 [Example 7, N-Pyridin-2-ylmethylene-N′-quinolin-2-yl-hydrazine]",3.15 µM
7,"C(=N\Nc1ccccc1)/c1ccccn1 [Example 16, N-Phenyl-N′-pyridin-2-ylmethylene-hydrazine]",13 µM
8,"FC(F)(F)c1cc(C(F)(F)F)c2ccc(N/N=C/c3ccccn3)nc2n1 [Example 8, N-(5,7-Bis-trifluoromethyl-[1,8]naphthyridin-2-yl)-N′-pyridin-2-ylmethylene-hydrazine]",1.57 µM
9,"Cc1ncc(CO)c(/C=N/Nc2ccccn2)c1O [Example 22, 5-Hydroxymethyl-2-methyl-4-(pyridin-2-yl-hydrazonomethyl)-3-ol]",1.77 µM
10,Cc1sc2ncnc(N/N=C/c3c(O)ccc4ccccc34)c2c1C [Example 27],1.8 µM
11,"Oc1ccc(/C=N/Nc2nccnc2Cl)c(O)c1 [Example 21, 4-[(3-Chloro-pyrazin-2-yl)-hydrazonomethyl]-benzene-1,3-diol]",10.3 µM
12,"Oc1ccccc1/C=N/Nc1ccccc1 [Example 18, 2-(Phenyl-hydrazonomethyl)-phenol]",14 µM
13,"c1ccc(CNNc2ccccn2)nc1 [Example 4, N-Pyridin-2-yl-N′-pyridin-2-ylmethyl-hydrazine]",5.7 µM
14,"C/C(=N\Nc1nnc2c(n1)[nH]c1ccccc12)c1ccccn1 [Example 15, N-(1-Pyridin-2-yl-ethylidene)-N-(9H-1,3,4,9-tetraaza-fluoren-2-yl)-hydrazine]",0.36 µM
15,"Oc1ccc(/C=N/Nc2nc(N3CCCC3)nc(N3CCCC3)n2)cc1O [Example 28, 4-[(4,6-Di-pyrrolidin-1-yl-[1,3,5]triazin-2-yl)-hydrazonomethyl]-benzene-1,2-diol]",1.1 µM
16,"FC(F)(F)c1cnc(N/N=C/c2ccccn2)c(Cl)c1 [Example 10, N-(3-Chloro-5-trifluoromethyl-pyridin-2-yl)-N′-pyridin-2-ylmethylene-hydrazine]",1.56 µM
17,"Cc1ccccc1/C=N/Nc1ccccc1 [Example 17, N-(2-Methyl-benzylidene)-N′-phenyl-hydrazine]",15 µM
18,"Cc1cccc(/C=N/Nc2ccccn2)n1 [Example 25, N-(6-Methyl-pyridin-2-ylmethylene)-N′-pyridin-2-yl-hydrazine]",28.6 µM
19,"C/C(=N\N(C)c1ccccn1)c1ccccn1 [Example 5, N-Methyl-N-pyridin-2-yl-N′-(1-pyridin-2-yl-ethylidene)-hydrazine]",26.2 µM
20,"C(=N\Nc1ccccn1)/c1ccccn1 [Example 1, N-Pyridin-2-yl-N′-2-ylmethylene-hydrazine]",1.6 µM
21,"Oc1ccccc1/C=N/Nc1ccccn1 [Example 20, 2-Pyridyl-(2-hydroxy-benzylidene)-hydrazide]",5.7 µM
22,"CN(/N=C/c1ccccn1)c1ccccn1 [Example 3, N-methyl-N-pyridin-2-yl-N′-pyridin-2-ylmethylene-hydrazine]",0.75 µM
23,"C(=N\Nc1nc2ccccc2s1)/c1ccccn1 [Example 6, N-Benzothiazol-2-yl-N′-pyridin-2-ylmethylene-hydrazine]",1.5 µM
24,"CN(/N=C/c1ccccn1)c1ncc(C(F)(F)F)cc1Cl [Example 11, N-(3-Chloro-5-trifluoromethyl-pyridin-2-yl)-N-methyl-N′pyridin-2-ylmethylene-hydrazine]",15 µM
25,"C(=N\Nc1nnc2c(n1)[nH]c1ccccc12)/c1ccccn1 [Example 14, N-Pyridin-2-ylmethylene-N′-(9H-1,3,4,9-tetraaza-fluoren-2-yl)-hydrazine]",2.3 µM
26,"C/C(=N\Nc1ccc(C(F)(F)F)cc1)c1ccccn1 [Example 13, N-(1-Pyridin-2-yl-ethylidene)-N′-(4-trifluoromethyl-phenyl)-hydrazine]",4.3 µM
27,"COc1cccc(/C=N/Nc2ccccn2)c1O [Example 23, 2-Methoxy-6-(pyridin-2-yl-hydrazonomethyl)-phenol]",7 µM
